This is an account of results in the supplement of paper PMC10307832.

Common to all, as to experiment: relative viability (nuclei count vs DMSO), 5 days (fraction); higher = more cells survive
Compound in the test “Ruxolitinib + Dasatinib”: N#CC[C@H](C1CCCC1)n1cc(-c2ncnc3[nH]ccc23)cn1 [Ruxolitinib] + Cc1nc(Nc2ncc(C(=O)Nc3c(C)cccc3Cl)s2)cc(N2CCN(CCO)CC2)n1 [Dasatinib] (partner 0.075 µM)
In short, it runs like this:
(§1)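 The day after seeding in 1536-well plates, lung cancer cell lines were treated by pin tool with a single drug, or with a fixed anchor-drug dose together with five library-drug doses (not always all listed) in √10 steps. After 5 days, a combined fix-and-stain solution (final 0.05% Triton X-100, 1% formaldehyde, 1 ug/ml Hoechst) was added. Nuclei counted on 4× images gave relative viability as treated counts over vehicle counts, reported as the median of duplicate plates.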

Compound in the test “Ruxolitinib + Bortezomib”: N#CC[C@H](C1CCCC1)n1cc(-c2ncnc3[nH]ccc23)cn1 [Ruxolitinib] + CC(C)C[C@H](NC(=O)[C@H](Cc1ccccc1)NC(=O)c1cnccn1)B(O)O [Bortezomib] (partner 0.002 µM)
In short, it runs like this:
as §1

Compound in the test “VE-821 + Trametinib”: CS(=O)(=O)c1ccc(-c2cnc(N)c(C(=O)Nc3ccccc3)n2)cc1 [VE-821] + CC(=O)Nc1cccc(-n2c(=O)n(C3CC3)c(=O)c3c(Nc4ccc(I)cc4F)n(C)c(=O)c(C)c32)c1 [Trametinib] (partner 0.02 µM)
The method, boiled down: as §1

Compound in the test “Ruxolitinib + Crizotinib”: N#CC[C@H](C1CCCC1)n1cc(-c2ncnc3[nH]ccc23)cn1 [Ruxolitinib] + C[C@@H](Oc1cc(-c2cnn(C3CCNCC3)c2)cnc1N)c1c(Cl)ccc(F)c1Cl [Crizotinib] (partner 1 µM)
The method, boiled down:
as §1

In the case of UMC-11, the relative viability in the test with Ruxolitinib + Dasatinib (first compound 0.08 µM) was 0.437; in the test with Ruxolitinib + Dasatinib (first compound 0.253 µM) it was 0.492; with Ruxolitinib + Dasatinib (first compound 0.8 µM), 0.524; with Ruxolitinib + Dasatinib (first compound 2.53 µM) it was 0.508; with Ruxolitinib + Dasatinib (first compound 8 µM), 0.512; with Ruxolitinib + Bortezomib (first compound 0.08 µM), 0.696. Also, the relative viability in the test with Ruxolitinib + Bortezomib (first compound 0.253 µM) was found to be 0.983; in the test with Ruxolitinib + Bortezomib (first compound 0.8 µM), 0.929; with Ruxolitinib + Bortezomib (first compound 2.53 µM), 0.715; in the test with Ruxolitinib + Bortezomib (first compound 8 µM), 0.706; with VE-821 + Trametinib (first compound 0.08 µM), 0.738; with VE-821 + Trametinib (first compound 0.253 µM) it was 0.596. The relative viability in the test with VE-821 + Trametinib (first compound 0.8 µM) worked out at 0.516; in the test with VE-821 + Trametinib (first compound 2.53 µM) it was 0.798; in the test with VE-821 + Trametinib (first compound 8 µM) it was 0.38; in the test with Ruxolitinib + Crizotinib (first compound 0.08 µM), 0.622; with Ruxolitinib + Crizotinib (first compound 0.253 µM), 0.616; in the test with Ruxolitinib + Crizotinib (first compound 0.8 µM), 0.736. Further, the values for the relative viability with Ruxolitinib + Crizotinib (first compound 2.53 µM) and with Ruxolitinib + Crizotinib (first compound 8 µM) were 0.736 and 0.668, respectively.
